Results reported in paper PMC12670427, “FDA Drug Repurposing Uncovers Modulators of Dopamine D2 Receptor Localization via Disruption of the NCS‑1 Interaction” (Journal of Medicinal Chemistry, 2025).
Several values for one entry are separate records, joined by “and”; a condition that tells them apart may be missing. Equal entries are not always repeated. Structures can show the parent of a compound that is named as a salt.

How the values were obtained:
[1] = tested on: D2R subcellular localization in HEK293 cells; assay: Sequential immunostaining for D2R localization (membrane vs cytoplasm); format: cell-based, human; settings: for effect of trafficking tool compounds on NCS-1-induced D2R membrane localization: HEK293 cells, NCS-1 overexpression
Method: HEK293 cells were seeded on poly-D-lysine-coated glass coverslips in 24-well plates. Following transfection and drug treatments, cells were fixed with 2% paraformaldehyde (PFA) for 10 min and with 4% PFA for an additional 10 min at room temperature. Coverslips with fixed cells were then blocked in PBS containing 10% normal goat serum (NGS) for 30 min at room temperature.
After three PBS washes, fluorescence was fixed with 10% formaldehyde for 3 min. The second round started with a blocking step using PBS containing 10% NGS and 0.03% Triton X-100 for 1 h at room temperature. […] Coverslips were washed with PBS and mounted using ProLong Gold Antifade (Thermo Fisher Scientific) with Hoechst for nuclear counterstaining. Confocal images were acquired using either a Leica SP5 or a Nikon ECLIPSE Ti microscope, depending on the experiment. […] Individual confocal images were processed by setting intensity thresholds for the green (cytoplasmic) and red (membrane) channels. Fluorescence intensity was then measured separately for each channel, and the relative proportion of green to red signal was calculated for each image.

[2] = known drug property listed in Supplementary Table 1, no reference given; cited from earlier work
[3] = biological target: T1, full-length NCS-1 (Homo sapiens, UniProt P62166); assay: Tryptophan intrinsic emission fluorescence binding to full-length NCS-1; settings: full-length NCS-1 5 μM, Trp emission at 330 nm, 35 °C, apparent Kd mean ± SD
T1 construct: For biophysical and crystallographic assays, full-length human NCS-1; made in house
T1 sequence (P62166 whole entry): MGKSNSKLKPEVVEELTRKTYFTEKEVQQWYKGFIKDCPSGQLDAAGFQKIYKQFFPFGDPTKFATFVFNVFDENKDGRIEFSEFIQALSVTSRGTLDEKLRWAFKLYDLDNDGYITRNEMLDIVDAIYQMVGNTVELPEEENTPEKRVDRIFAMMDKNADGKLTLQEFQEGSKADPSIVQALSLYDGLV
Method: To experimentally assess the binding of the FDA-approved drug library to NCS-1 we used tryptophan emission fluorescence. ,, Fluorescence intensity changes were measured at 330 nm in full-length NCS-1 upon increasing concentrations of the selected compounds (Figure A).

[4] = biological target: T2, NCS-1ΔH10 (Homo sapiens, UniProt P62166); assay: Intrinsic emission fluorescence binding to NCS-1ΔH10; settings: NCS-1ΔH10, intrinsic emission fluorescence; read-out: apparent binding affinity for H10-truncated NCS-1
T2 construct: NCS-1 construct lacking helix H10; made in house
T2 sequence (P62166 1-177 limits assumed, stated change not applied): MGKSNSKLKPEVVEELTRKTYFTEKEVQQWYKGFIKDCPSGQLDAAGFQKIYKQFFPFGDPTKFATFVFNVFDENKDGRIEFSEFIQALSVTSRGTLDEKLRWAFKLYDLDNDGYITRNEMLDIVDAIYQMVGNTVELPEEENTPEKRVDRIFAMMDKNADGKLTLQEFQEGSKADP
Method: To determine the affinity of the FDA-approved drugs for full-length NCS-1 or NCS-1ΔH10, we used fluorescence techniques, since the presence of tryptophan (Trp) and tyrosine (Tyr) residues in NCS-1 sequence confers the protein intrinsic emission fluorescence when excited at 295 nm. Fluorescence intensity was monitored at 330 nm and 35 °C with a nano-DSF machine (nanoTemper). Protein concentration was set to 5 μM in a buffer containing Tris 50 mM pH 8.0, NaCl 125 mM, CaCl2 5 μM, 5% DMSO. Ligand concentration was increased up to 150 μM. Three independent experiments were performed for each protein:ligand ratio. […] In fact, compound FDA-02, 09, 11, 15, 21, and 22 were measured using SPR due to their high intrinsic emission at 330 nm. The apparent dissociation constant, K d, was obtained by using a least-squares algorithm to fit the recorded data to the equation previously described. Apparent K d values are reported as mean ± SD. ,
Prior crystallization, the contribution of the helix H10 to ligand binding was assessed in case this information could guide construct selection for structural studies. […] Given the initial high affinity of AZS for full-length NCS-1, the affinity for the H10-truncated construct was not measured. Initial crystallization screenings yielded to crystals of ATV in complex with full-length NCS-1. […]

[5] = Solubility under the binding assay conditions; format: physicochemical; settings: SPR running buffer; precipitated on the sensor chip
Source text: (§1) Sensorgrams data were double-referenced and solvent-corrected using the BiaEvaluation X-100 software (Biacore, GE).

[6] = biological target: T3, NCS-1/D2R interaction (Homo sapiens, UniProt P62166); assay: Proximity ligation assay (PLA) with flow cytometry; format: cell-based; settings: HEK293 cells, 5 μM, 16 h; vehicle set to 100%; mean ± SD
T3 construct: expressed in transfected cells; host or cells: HEK293
T3 sequence (P62166 2-190 limits assumed): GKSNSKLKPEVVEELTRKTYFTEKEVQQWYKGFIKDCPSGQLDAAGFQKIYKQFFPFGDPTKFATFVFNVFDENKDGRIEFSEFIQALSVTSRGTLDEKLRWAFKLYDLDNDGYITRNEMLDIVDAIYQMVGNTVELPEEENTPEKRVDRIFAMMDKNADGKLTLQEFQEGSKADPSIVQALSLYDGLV

[7] = biological target: T1, full-length NCS-1; assay: Surface plasmon resonance over CM4-immobilized NCS-1; format: binding; settings: SPR, NCS-1 immobilized on CM4 chip, 25 °C; used for compounds that emit at 330 nm; read-out: NCS-1/FDA Affinity, Kd
Source text: In these experiments, full-length NCS-1 was cross-linked to the surface of the biosensor, through its lysine amino acids, since these residues are concentrated on the upper surface and opposite to the hydrophobic crevice. This arrangement ensured that the hydrophobic crevice remained exposed to the solvent.
NCS-1 was immobilized on a CM4 sensor chip (Biacore, GE) following a standard amine coupling method. The carboxymethyl dextran surface of the flow cell 2 was activated by injecting a 1:1 mixture of 0.4 M EDC and 0.1 M NHS for 7 min. The protein was then covalently coupled to the surface via a 7 min injection at several dilutions, with a final concentration of 100 μg/mL in 10 mM sodium acetate, pH 4.0. Unreacted N-hydroxysuccinimide esters were quenched by a 7 min injection of 0.1 M ethanolamine-HCl pH 8.0, achieving an immobilization level of 5000 RUs. Flow cell 1, subjected to the same amine coupling procedure but without protein, served as a reference (Supplementary Figure 3A). Prior to use, 10 mM stock solutions of FDA-approved drugs were serially diluted to final concentration of 100 μM in running buffer. […] After dissociation, an additional wash step was performed using a 50% DMSO solution. Regeneration was not required.
as §1

[8] = read-out: NCS-1/FDA Affinity, Kd

| Molecule | Crossing the blood-brain barrier [2] | Kd [3, 8] | other results |
| --- | --- | --- | --- |
| C[C@H]1CCC/C=C/[C@@H]2C[C@H](O)C[C@H]2[C@H](O)/C=C/C(=O)O1 [BFA, Brefeldin A] |  |  | effect of trafficking tool compounds on NCS-1-induced D2R membrane localization [1]: prevented the NCS-1-induced increase in membrane D2R |
| CCN(CC)CCOc1ccc(C(=C(Cl)c2ccccc2)c2ccccc2)cc1 [Clomiphene citrate] | No |  |  |
| N#Cc1ccc2[nH]cc(CCCCN3CCN(c4ccc5oc(C(N)=O)cc5c4)CC3)c2c1 [Vilazodone] | Yes | 34 µM and 34.4 µM | Kd [4]: 8 µM; effect on D2R localization in the absence of NCS-1 overexpression ([1]; HEK293 cells transfected with D2R alone): affected D2R localization |
| CCCCCCCN(CC)CCCC(O)c1ccc(NS(C)(=O)=O)cc1 (centres unmarked) [Ibutilide fumarate] | No |  | NCS-1/FDA Affinity, Kd [3]: No affinity |
| CN1C[C@H](C(=O)N[C@]2(C)O[C@@]3(O)[C@@H]4CCCN4C(=O)[C@H](Cc4ccccc4)N3C2=O)C=C2c3cccc4[nH]cc(c34)C[C@H]21 [Ergotamine] | No |  | Kd ([3]; NCS-1/FDA Affinity, Kd): 122 ± 18 µM |
| O=C1Cc2cc(CCN3CCN(c4nsc5ccccc45)CC3)c(Cl)cc2N1 [ziprasidone] |  |  | solubility under the experimental conditions [5]: low solubility |
| Capreomycin sulfate |  |  | effect on NCS-1-induced D2R membrane localization ([1]; HEK293 cells cotransfected with D2R and NCS-1, 5 μM, 2 h): modest effect |
| COC(=O)N[C@H](C(=O)N1CCC[C@H]1c1nc(-c2ccc(-c3ccc(-c4c[nH]c([C@@H]5CCCN5C(=O)[C@@H](NC(=O)OC)C(C)C)n4)cc3)cc2)c[nH]1)C(C)C [Daclatasvir] | No | 7.2 ± 0.1 µM | PPI modulation (PLA): NCS-1/D2R binding relative to vehicle-treated controls [6]: 114.6 ± 17.4% |
| CC(C)CN(C[C@@H](O)[C@H](Cc1ccccc1)NC(=O)O[C@H]1CO[C@H]2OCC[C@H]21)S(=O)(=O)c1ccc(N)cc1 [Darunavir] | No |  |  |
| Cc1c(O)cccc1C(=O)N[C@@H](CSc1ccccc1)[C@H](O)CN1C[C@H]2CCCC[C@H]2C[C@H]1C(=O)NC(C)(C)C [Nelfinavir] | No | 47.6 ± 4.1 µM | PPI modulation (PLA): NCS-1/D2R binding relative to vehicle-treated controls [6]: 112.0 ± 12.7% |
| CNCCCC1c2ccccc2C=Cc2ccccc21 [Protriptyline hydrochloride] | Yes |  |  |
| CCCCCCOC(=O)NC(=N)c1ccc(NCc2nc3cc(C(=O)N(CCC(=O)OCC)c4ccccn4)ccc3n2C)cc1 [Dabigatran etexilate] | No | 13.2 ± 2.5 µM |  |
| CCCN(CCC)CCc1cccc2c1CC(=O)N2 [Ropinirole] |  |  | effect of trafficking tool compounds on NCS-1-induced D2R membrane localization [1]: reversed this effect |
| OCc1cc(C(O)CNCCCCCCOCCCCc2ccccc2)ccc1O (centres unmarked) [Salmeterol] | Yes |  | Kd [7]: 68.2 ± 17.9 µM; PPI modulation (PLA): NCS-1/D2R binding relative to vehicle-treated controls [6]: 96.5 ± 17.2% |
| Cc1ccc(NC(=O)c2ccc(CN3CCN(C)CC3)cc2)cc1Nc1nccc(-c2cccnc2)n1 [Imatinib] | Yes |  |  |
| CCOc1nc2cccc(C(=O)OCc3oc(=O)oc3C)c2n1Cc1ccc(-c2ccccc2-c2noc(=O)[nH]2)cc1 [Azilsartan medoxomil] | Low penetrance |  |  |
| CCN(CC)CCCC(C)Nc1ccnc2cc(Cl)ccc12 (centres unmarked) [Chloroquine] | Yes | 200 ± 35 µM |  |
| CC(C)c1c(C(=O)Nc2ccccc2)c(-c2ccccc2)c(-c2ccc(F)cc2)n1CC[C@@H](O)C[C@@H](O)CC(=O)O [Atorvastatin] |  | 53 µM and 53.1 µM | Kd [4]: 17 µM |
| CS(=O)(=O)CCNCc1ccc(-c2ccc3ncnc(Nc4ccc(OCc5cccc(F)c5)c(Cl)c4)c3c2)o1 [Lapatinib] | No |  |  |
| C[C@]12CC[C@@H]3c4ccc(O)cc4C[C@@H](CCCCCCCCC[S+]([O-])CCCC(F)(F)C(F)(F)F)[C@H]3[C@@H]1CC[C@@H]2O (some centres unmarked) [Faslodex] | No |  |  |
| CCN(CC)CCNC(=O)c1c(C)[nH]c(/C=C2\C(=O)Nc3ccc(F)cc32)c1C [Sunitinib] | No |  |  |
| CCN(CCO)CCCC(C)Nc1ccnc2cc(Cl)ccc12 (centres unmarked) [Hydroxychloroquine sulfate] | Yes | 353 ± 138 µM |  |
| O=C(N/N=C/c1ccc(O)c(O)c1)c1cc2ccccc2cc1O [Dynasore] |  |  | effect of trafficking tool compounds on NCS-1-induced D2R membrane localization [1]: did not significantly affect |
